In the oligonucleotide strings, read from the 5' end, every base follows the letter of its sugar. An asterisk marks phosphorothioate; unmarked linkages are phosphodiester. Other units and linkages are bracketed, terminal groups are in braces. A string of capitals states the bases alone. e = 2'-O-(2-methoxyethyl) (MOE); [5mC] = 5-methylcytosine; d = 2'-deoxy (DNA)

The subject of one series is Factor XI protein. Put plainly: Cynomolgus monkeys: plasma Factor XI protein ELISA (Example 29). Format: in vivo. The settings on record: escalating doses 5, 10, 25 mg/kg s.c., day 8. How it is done: (§1) Groups, each consisting of two male and three female monkeys, were injected subcutaneously with ISIS 416838, ISIS 416850, ISIS 416858, ISIS 416864, or ISIS 417002 in escalating doses. Antisense oligonucleotide was administered to the monkeys at 5 mg/kg three times per a week for week 1; 5 mg/kg twice per week for weeks 2 and 3; 10 mg/kg three times per week for week 4; 10 mg/kg twice per week for weeks 5 and 6; 25 mg/kg three times per week for week 7; and 25 mg/kg twice per week for weeks 8, 9, 10, 11, and 12. One control group, consisting of two male and three female monkeys, was injected subcutaneously with PBS according to the same dosing regimen. An additional experimental group, consisting of two male and three female monkeys, was injected subcutaneously with ISIS 416850 in a chronic, lower dose regimen. Antisense oligonucleotide was administered to the monkeys at 5 mg/kg three times per week for week 1; 5 mg/kg twice per week for week 2 and 3; 10 mg/kg three times per week for week 4; and 10 mg/kg twice per week for weeks 5 to 12. Body weights were measured weekly. Blood samples were collected 14 days and 5 days before the start of treatment and subsequently once per week for Factor XI protein activity analysis in plasma and measurement of various hematologic factors. On day 85, the monkeys were euthanized by exsanguination while under deep anesthesia, and organs harvested for further analysis.
Plasma samples from all monkey groups taken on different days were analyzed by a sandwich-style ELISA assay (Affinity Biologicals Inc.) using an affinity-purified polyclonal anti-Factor XI antibody as the capture antibody and a peroxidase-conjugated polyclonal anti-Factor XI antibody as the detecting antibody. Monkey plasma was diluted 1:50 for the assay. Peroxidase activity was expressed by incubation with the substrate o-phenylenediamine. The color produced was quantified using a microplate reader at 490 nm and was considered to be proportional to the concentration of Factor XI in the samples.
The results are presented in Table 122, expressed as percentage reduction relative to that of the PBS control.
Background: ELISA stands for enzyme-linked immunosorbent assay.
As to “ISIS 417002: gapmer of Table 8 (antisense eG*eG*dT*dG*d[5mC]*dA*d[5mC]*dA*dG*dT*dT*dT*d[5mC]*dT*dG*eG*e[5mC]*eA*eG*eG)”, the “Inhibition of Factor XI protein relative to the PBS control” value turned out to be 0%.

The series is the same for the next values; noted with them: escalating doses 5, 10, 25 mg/kg s.c., day 15.
On to “ISIS 417002: gapmer of Table 8 (antisense eG*eG*dT*dG*d[5mC]*dA*d[5mC]*dA*dG*dT*dT*dT*d[5mC]*dT*dG*eG*e[5mC]*eA*eG*eG)”, for which the “Inhibition of Factor XI protein relative to the PBS control” value was determined as 4%.

Still in this series, the particulars now being: escalating doses 5, 10, 25 mg/kg s.c., day 22.
As for “ISIS 417002: gapmer of Table 8 (antisense eG*eG*dT*dG*d[5mC]*dA*d[5mC]*dA*dG*dT*dT*dT*d[5mC]*dT*dG*eG*e[5mC]*eA*eG*eG)”, the “Inhibition of Factor XI protein relative to the PBS control” value was 2%.

The series is the same for the next values; noted with them: escalating doses 5, 10, 25 mg/kg s.c., day 29.
For the substance “ISIS 417002: gapmer of Table 8 (antisense eG*eG*dT*dG*d[5mC]*dA*d[5mC]*dA*dG*dT*dT*dT*d[5mC]*dT*dG*eG*e[5mC]*eA*eG*eG)”, the “Inhibition of Factor XI protein relative to the PBS control” value came out at 8%.

The series is the same for the next values; noted with them: escalating doses 5, 10, 25 mg/kg s.c., day 36.
“ISIS 417002: gapmer of Table 8 (antisense eG*eG*dT*dG*d[5mC]*dA*d[5mC]*dA*dG*dT*dT*dT*d[5mC]*dT*dG*eG*e[5mC]*eA*eG*eG)”: the “Inhibition of Factor XI protein relative to the PBS control” value was 8%.

Still in this series, the particulars now being: escalating doses 5, 10, 25 mg/kg s.c., day 43.
For “ISIS 417002: gapmer of Table 8 (antisense eG*eG*dT*dG*d[5mC]*dA*d[5mC]*dA*dG*dT*dT*dT*d[5mC]*dT*dG*eG*e[5mC]*eA*eG*eG)”, the “Inhibition of Factor XI protein relative to the PBS control” value is reported as 9%.

Still in this series, the particulars now being: escalating doses 5, 10, 25 mg/kg s.c., day 50.
With “ISIS 417002: gapmer of Table 8 (antisense eG*eG*dT*dG*d[5mC]*dA*d[5mC]*dA*dG*dT*dT*dT*d[5mC]*dT*dG*eG*e[5mC]*eA*eG*eG)”, the “Inhibition of Factor XI protein relative to the PBS control” value is given as 13%.

Still in this series, the particulars now being: escalating doses 5, 10, 25 mg/kg s.c., day 57.
For “ISIS 417002: gapmer of Table 8 (antisense eG*eG*dT*dG*d[5mC]*dA*d[5mC]*dA*dG*dT*dT*dT*d[5mC]*dT*dG*eG*e[5mC]*eA*eG*eG)”, the “Inhibition of Factor XI protein relative to the PBS control” value is recorded as 24%.

The same series, now with this note: escalating doses 5, 10, 25 mg/kg s.c., day 64.
As for “ISIS 417002: gapmer of Table 8 (antisense eG*eG*dT*dG*d[5mC]*dA*d[5mC]*dA*dG*dT*dT*dT*d[5mC]*dT*dG*eG*e[5mC]*eA*eG*eG)”, the “Inhibition of Factor XI protein relative to the PBS control” value stood at 26%.

The same series, now with this note: escalating doses 5, 10, 25 mg/kg s.c., day 71.
As to “ISIS 417002: gapmer of Table 8 (antisense eG*eG*dT*dG*d[5mC]*dA*d[5mC]*dA*dG*dT*dT*dT*d[5mC]*dT*dG*eG*e[5mC]*eA*eG*eG)”, the “Inhibition of Factor XI protein relative to the PBS control” value turned out to be 30%.

Still in this series, the particulars now being: escalating doses 5, 10, 25 mg/kg s.c., day 78.
With “ISIS 417002: gapmer of Table 8 (antisense eG*eG*dT*dG*d[5mC]*dA*d[5mC]*dA*dG*dT*dT*dT*d[5mC]*dT*dG*eG*e[5mC]*eA*eG*eG)”, the “Inhibition of Factor XI protein relative to the PBS control” value turned out to be 22%.

Staying with this series, now noted: escalating doses 5, 10, 25 mg/kg s.c., day 85.
With “ISIS 417002: gapmer of Table 8 (antisense eG*eG*dT*dG*d[5mC]*dA*d[5mC]*dA*dG*dT*dT*dT*d[5mC]*dT*dG*eG*e[5mC]*eA*eG*eG)”, the “Inhibition of Factor XI protein relative to the PBS control” value was 23%.

Still in this series, the particulars now being: escalating doses 5, 10, 25 mg/kg s.c., day −5 (before treatment).
Regarding “ISIS 417002: gapmer of Table 8 (antisense eG*eG*dT*dG*d[5mC]*dA*d[5mC]*dA*dG*dT*dT*dT*d[5mC]*dT*dG*eG*e[5mC]*eA*eG*eG)”, the “Inhibition of Factor XI protein relative to the PBS control” value was found to be 0%.

Staying with this series, now noted: escalating doses 5, 10, 25 mg/kg s.c., day −14 (before treatment).
For “ISIS 417002: gapmer of Table 8 (antisense eG*eG*dT*dG*d[5mC]*dA*d[5mC]*dA*dG*dT*dT*dT*d[5mC]*dT*dG*eG*e[5mC]*eA*eG*eG)”, the “Inhibition of Factor XI protein relative to the PBS control” value is listed as 0%.

Tested on in a further series: not listed separately
Put plainly: Cynomolgus monkeys: body and organ weights (Example 29). Format: in vivo. The settings on record: after euthanasia. As for the experimental part:
as §1
Body weights were taken once weekly throughout the dosing regimen. […] Organ weights were taken after the animals were euthanized and livers, kidneys and spleens were harvested and weighed. […] The ISIS oligonucleotide, ISIS 416850, given with the chronic dose regimen is distinguished from the other oligonucleotides with an asterisk (*).
Substance “ISIS 417002: gapmer of Table 8 (antisense eG*eG*dT*dG*d[5mC]*dA*d[5mC]*dA*dG*dT*dT*dT*d[5mC]*dT*dG*eG*e[5mC]*eA*eG*eG)” yielded a Kidney weight of 15 g, a Liver weight of 51 g and a Spleen weight of 5 g.

The series is the same for the next values; noted with them: escalating doses 5, 10, 25 mg/kg s.c., day 1.
Consider “ISIS 417002: gapmer of Table 8 (antisense eG*eG*dT*dG*d[5mC]*dA*d[5mC]*dA*dG*dT*dT*dT*d[5mC]*dT*dG*eG*e[5mC]*eA*eG*eG)”, for which the Body weight amounted to 2640 g.

The series is the same for the next values; noted with them: escalating doses 5, 10, 25 mg/kg s.c., day 8.
With “ISIS 417002: gapmer of Table 8 (antisense eG*eG*dT*dG*d[5mC]*dA*d[5mC]*dA*dG*dT*dT*dT*d[5mC]*dT*dG*eG*e[5mC]*eA*eG*eG)”, the Body weight is listed as 2523 g.

The series is the same for the next values; noted with them: escalating doses 5, 10, 25 mg/kg s.c., day 15.
The substance “ISIS 417002: gapmer of Table 8 (antisense eG*eG*dT*dG*d[5mC]*dA*d[5mC]*dA*dG*dT*dT*dT*d[5mC]*dT*dG*eG*e[5mC]*eA*eG*eG)” yielded a Body weight of 2571 g.

Staying with this series, now noted: escalating doses 5, 10, 25 mg/kg s.c., day 22.
“ISIS 417002: gapmer of Table 8 (antisense eG*eG*dT*dG*d[5mC]*dA*d[5mC]*dA*dG*dT*dT*dT*d[5mC]*dT*dG*eG*e[5mC]*eA*eG*eG)” had a Body weight of 2617 g.

Values taken from patent US20120083522A1, “MODULATION OF INFLAMMATORY RESPONSES BY FACTOR XI” (Isis Pharmaceuitcals, inc., priority 2009, published 2012).
